According to ChEMBL document CHEMBL1201862, “PubChem BioAssay data set” (2004):
The source made the active and inactive calls.

Columns and labels:
[1] = target: Serine/threonine-protein phosphatase (Homo sapiens, UniProt Q9BPW0); assay: Counterscreen for inhibitors of PP1: fluorescence-based biochemical high throughput dose response assay to identify inhibitors of Protein Phosphatase 5 (PP5). [Related pubchem assays: 2034 (Summary (PP5 inhibitors)), 1987 (PP5 inhibitors in singlate), 2235 (PP1 inhibitors in singlate)]
[2] = target: Serine/threonine-protein phosphatase PP1-alpha catalytic subunit (Homo sapiens, UniProt P62136); assay: PP1 phosphatase inhibitors, dose response, biochemical, fluorescence (AID 2403);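 further: phosphatase turnover of OMFP into fluorescent 3-O-methylfluorescein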
[3] = target: T1, Probable nicotinate-nucleotide adenylyltransferase (Staphylococcus aureus (strain N315), UniProt P65502); format: functional, Staphylococcus aureus subsp. aureus N315; details: read-out: IC50_Mean;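 on IC50 Mean: confirmatory dose-response retesting of NadD inhibitor hits first found in an ultra-high-throughput screen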
[4] = target: Neuropeptide Y receptor type 1 (Homo sapiens, UniProt P25929); assay: Fluorescence-based counterscreen for agonists of NPY-Y2: cell-based high-throughput dose response assay for agonists of NPY-Y1.; format: functional
[5] = HIV-1 Env-mediated cell fusion inhibitors, dose response, CCR5-tropic Env (AID 2279); format: functional
Aminopeptidase N = target: T2, Aminopeptidase N (Plasmodium falciparum FcB1/Columbia, UniProt O96935); assay: P. falciparum M1AAP inhibitors, biochemical, fluorogenic H-Leu-NHMec substrate, 1536-well (AID 1445); design: species or system Plasmodium falciparum 3D7, 3D7
T2 sequence (O96935 whole entry): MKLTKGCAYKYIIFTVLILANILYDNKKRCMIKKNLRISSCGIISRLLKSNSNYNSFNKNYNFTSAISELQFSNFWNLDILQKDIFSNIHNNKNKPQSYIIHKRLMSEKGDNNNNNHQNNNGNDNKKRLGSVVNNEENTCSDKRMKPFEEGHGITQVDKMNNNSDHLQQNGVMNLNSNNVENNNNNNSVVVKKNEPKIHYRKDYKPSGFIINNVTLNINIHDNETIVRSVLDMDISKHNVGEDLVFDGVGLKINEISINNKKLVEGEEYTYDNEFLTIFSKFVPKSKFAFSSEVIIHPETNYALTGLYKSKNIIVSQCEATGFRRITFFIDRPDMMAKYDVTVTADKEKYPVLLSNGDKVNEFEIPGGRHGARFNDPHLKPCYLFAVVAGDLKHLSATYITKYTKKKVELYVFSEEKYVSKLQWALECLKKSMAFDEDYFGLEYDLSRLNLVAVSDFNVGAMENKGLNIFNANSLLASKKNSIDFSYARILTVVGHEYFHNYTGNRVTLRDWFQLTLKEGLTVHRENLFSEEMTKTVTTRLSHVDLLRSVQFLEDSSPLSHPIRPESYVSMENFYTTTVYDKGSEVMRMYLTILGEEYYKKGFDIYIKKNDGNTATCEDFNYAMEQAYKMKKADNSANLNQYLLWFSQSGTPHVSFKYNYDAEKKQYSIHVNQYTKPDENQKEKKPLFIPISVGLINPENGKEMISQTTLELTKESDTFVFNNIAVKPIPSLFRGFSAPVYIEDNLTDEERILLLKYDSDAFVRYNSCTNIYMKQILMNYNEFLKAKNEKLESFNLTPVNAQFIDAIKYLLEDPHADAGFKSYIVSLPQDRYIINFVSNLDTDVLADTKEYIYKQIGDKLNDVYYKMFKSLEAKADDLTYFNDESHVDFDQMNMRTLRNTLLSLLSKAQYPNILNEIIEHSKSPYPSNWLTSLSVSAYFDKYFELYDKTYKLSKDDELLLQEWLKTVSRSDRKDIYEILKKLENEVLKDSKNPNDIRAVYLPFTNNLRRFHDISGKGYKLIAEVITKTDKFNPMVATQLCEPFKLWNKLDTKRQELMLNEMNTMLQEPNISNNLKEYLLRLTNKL

[6] = target: T1, Probable nicotinate-nucleotide adenylyltransferase; format: functional, Staphylococcus aureus subsp. aureus N315
Vero = Vero cell cytotoxicity, cytotoxicity control for flavivirus capping enzyme inhibitors (AID 588742); format: functional; details: Chlorocebus sabaeus
[7] = target: Neuropeptide Y receptor type 2 (Homo sapiens, UniProt P49146); assay: Fluorescence-based cell-based high-throughput dose response assay for agonists of NPY-Y2. [Related pubchem assays: 1703 (Screening assay (CNGC inhibitors).), 1359 (Screening assay (NPY-Y2 potentiators or agonists).), 1304 (Screening assay (NPY-Y1 potentiators or agonists).), 1710 (Screening assay (NPY-Y2 agonists).), 1791 (Summary AID.)]; format: functional
HEK293 = assay: Fluorescence-based counterscreen for potentiators or agonists of NPY-Y2: cell-based high-throughput dose response assay to identify inhibitors of cyclic nucleotide gated ion channel (CNGC) activity. In this assay, the parental HEK293 cell line transfected with a cyclic-nucleotide gated ion channel (CNGC)-based cAMP sensor is used to measure inhibition of isoproterenol-induced CNGC activity by test compound.; format: functional; details: Homo sapiens
[8] = enhancers of respiration in Yfh1-depleted yeast, dose response, Friedreich's ataxia, plus single-dose screen (AID 1465); format: functional;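 further: yeast depleted of Yfh1p frataxin homolog grown on glycerol needing respiration; WST-1 tetrazolium dye reduction as measure of cellular dehydrogenase metabolic activity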
[9] = cytotoxicity toward NIH3T3 fibroblasts, dose response, counter-screen, cell-based, ATP luminescence, mouse fibroblasts (AID 2010); format: functional;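 further: cells exposed to compound for about 90 hours before reading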
[10] = target: T3, Mannose-6-phosphate isomerase (Homo sapiens, UniProt P34949); assay: inhibitors of human PMI, primary screen, biochemical, fluorescence intensity, coupled assay (AID 1209)
T3 sequence (P34949 whole entry): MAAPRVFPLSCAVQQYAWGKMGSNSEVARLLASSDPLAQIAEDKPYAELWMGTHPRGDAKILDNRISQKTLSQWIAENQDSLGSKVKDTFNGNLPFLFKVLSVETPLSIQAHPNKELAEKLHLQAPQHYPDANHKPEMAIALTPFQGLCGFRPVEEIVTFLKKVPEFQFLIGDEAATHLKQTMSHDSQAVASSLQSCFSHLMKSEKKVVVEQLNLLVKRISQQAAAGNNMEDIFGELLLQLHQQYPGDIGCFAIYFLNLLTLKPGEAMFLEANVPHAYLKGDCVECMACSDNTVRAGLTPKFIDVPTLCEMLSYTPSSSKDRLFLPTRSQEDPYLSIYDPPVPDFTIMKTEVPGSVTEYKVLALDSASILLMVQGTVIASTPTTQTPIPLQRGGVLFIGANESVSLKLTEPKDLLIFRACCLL

[11] = NIH-3T3 fibroblast cytotoxicity, dose response, cytotoxicity control, cell-based, fluorescence, Alamar Blue, secondary assay (AID 2327); format: functional;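 further: NIH-3T3 mouse fibroblasts cultured with fluconazole at 8 µg/mL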
[12] = Luminescence Cell-Based Dose Response HTS to Identify Inhibitors of 5'UTR Stem-Loop Driven Prion Protein mRNA Translation in H4 Neuroglioblastoma Cells. [Related pubchem assays: 1827 (Project Summary), 1813 (Primary HTS)]; format: functional
[13] = inhibitors of intracellular T. cruzi replication, confirmation, NIH3T3 host cells, beta-gal luminescence (AID 2044); format: functional, cell-based;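 further: intracellular parasites grown in NIH/3T3 mouse fibroblasts as host cells; luminescent beta-galactosidase reporter signal from transgenic T. cruzi replicating inside host cells; inhibitors lower the luminescence signal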
INS1 = assay: beta cell apoptosis inhibitors, cytokine rescue, dose response, luminescence, retest (AID 449756); format: functional, cell-based; details: Rattus norvegicus;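 further: cell death triggered by IL-1 beta plus TNF-alpha plus IFN-gamma mixture; protective hits raise ATP signal compared with cytokine alone wells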
Nonstructural protein 1 = Nonstructural protein 1 (Influenza A virus, UniProt Q194T2); format: functional, Influenza A virus (A/California/07/2009(H1N1))
cells [14] = format: functional, cell-based
[15] = Shn3 3'UTR reporter inhibitors, dose response, cell-based, Clone20 osteoblasts, firefly luciferase, cherry-picked (AID 624132); format: functional;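 further: firefly luciferase luminescence from reporter carrying the Shn3 3'UTR in osteoblasts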
cells [16] = format: functional, cell-based; remark: listed apart in the source
[17] = inhibitors of SNCA 5'UTR-driven reporter translation, confirmation, H4 neuroglioma cells, luminescence (AID 1988); format: functional, cell-based
[18] = target: T4, Heat shock factor protein 1 (Mus musculus, UniProt P38532); assay: inhibition of MG132-induced HSE-luciferase signal, confirmation, cell-based, NIH3T3, luminescence, dose retest (AID 2382); format: functional;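 further: NIH3T3 fibroblasts with HSF1-driven luciferase reporter stressed by proteasome inhibitor MG132; luminescence from HSF1-driven luciferase expression after 8 hours of MG132 stress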
T4 sequence (P38532 whole entry): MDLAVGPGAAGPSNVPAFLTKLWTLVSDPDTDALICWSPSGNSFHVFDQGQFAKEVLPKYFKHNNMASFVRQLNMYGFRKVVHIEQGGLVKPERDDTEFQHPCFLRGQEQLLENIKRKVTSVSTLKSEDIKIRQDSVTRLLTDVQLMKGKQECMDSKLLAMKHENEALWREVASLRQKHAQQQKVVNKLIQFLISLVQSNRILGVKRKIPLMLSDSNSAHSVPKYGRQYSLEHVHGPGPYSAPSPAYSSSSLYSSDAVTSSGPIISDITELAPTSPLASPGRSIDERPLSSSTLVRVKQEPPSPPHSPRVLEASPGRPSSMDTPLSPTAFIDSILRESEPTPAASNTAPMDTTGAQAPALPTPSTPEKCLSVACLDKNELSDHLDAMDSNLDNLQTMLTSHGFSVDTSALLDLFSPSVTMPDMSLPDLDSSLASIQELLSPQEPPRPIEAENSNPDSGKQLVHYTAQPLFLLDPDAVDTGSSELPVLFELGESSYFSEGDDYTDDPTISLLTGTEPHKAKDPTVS

[19] = inhibitors of firefly luciferase expression or activity, dose response, H4 neuroglioma cells, luminescence (AID 1990); format: functional, cell-based
[20] = control 3'UTR Renilla luciferase suppression, dose response, counter-screen for Shn3 inhibitor project, cell-based, Clone20-Shn3RL, cherry-picked (AID 624133); format: functional
[21] = C. albicans growth with fluconazole, confirmation, fluorescence, retest (AID 2467); format: functional, cell-based
[22] = HepG2 cell cytotoxicity, dose response, cytotoxicity control for Shn3 inhibitor project, CellTiter-Glo, cherry-picked (AID 624134); format: functional, cell-based
Estrogen receptor = target: T5, Estrogen receptor (Homo sapiens, UniProt P03372); assay: potentiators of ERα–SRC-1 coactivator binding, dose response, biochemical, TR-FRET, ERα LBD (AID 737)
T5 sequence (P03372 whole entry): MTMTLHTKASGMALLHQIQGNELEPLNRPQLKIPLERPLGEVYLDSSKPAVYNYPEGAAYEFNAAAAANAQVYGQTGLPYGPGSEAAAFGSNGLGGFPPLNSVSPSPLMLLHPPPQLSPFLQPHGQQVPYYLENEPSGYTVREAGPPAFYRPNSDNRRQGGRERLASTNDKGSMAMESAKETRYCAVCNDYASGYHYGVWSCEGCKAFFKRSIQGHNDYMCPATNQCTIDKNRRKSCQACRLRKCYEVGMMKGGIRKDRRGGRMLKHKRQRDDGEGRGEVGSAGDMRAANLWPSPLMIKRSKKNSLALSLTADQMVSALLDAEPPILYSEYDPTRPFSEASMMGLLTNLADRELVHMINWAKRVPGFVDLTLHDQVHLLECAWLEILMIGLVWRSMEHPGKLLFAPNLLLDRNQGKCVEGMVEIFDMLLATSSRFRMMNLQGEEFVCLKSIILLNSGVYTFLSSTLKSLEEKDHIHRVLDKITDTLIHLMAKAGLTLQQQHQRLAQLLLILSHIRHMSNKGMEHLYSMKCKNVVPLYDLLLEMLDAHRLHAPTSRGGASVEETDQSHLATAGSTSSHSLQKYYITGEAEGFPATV

[23] = cytotoxicity in KRAS-transformed pancreatic duct cells, primary screen, cell-based, fluorescence, HTS (AID 431); format: functional; details: Homo sapiens;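 further: cell line used: HPDE-C7K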
[24] = cytotoxicity in HPDE-C7 cells, cell-based, fluorescence, HTS (AID 430); format: functional; details: Homo sapiens

T1 sequence (P65502 whole entry): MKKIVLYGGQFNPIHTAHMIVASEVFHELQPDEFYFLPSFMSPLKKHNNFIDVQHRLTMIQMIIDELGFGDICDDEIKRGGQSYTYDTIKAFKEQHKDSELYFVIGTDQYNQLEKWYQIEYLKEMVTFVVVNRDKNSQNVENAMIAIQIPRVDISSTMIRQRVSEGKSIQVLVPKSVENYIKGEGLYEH
Chain of Neuropeptide Y receptor type 2 (P49146 whole entry): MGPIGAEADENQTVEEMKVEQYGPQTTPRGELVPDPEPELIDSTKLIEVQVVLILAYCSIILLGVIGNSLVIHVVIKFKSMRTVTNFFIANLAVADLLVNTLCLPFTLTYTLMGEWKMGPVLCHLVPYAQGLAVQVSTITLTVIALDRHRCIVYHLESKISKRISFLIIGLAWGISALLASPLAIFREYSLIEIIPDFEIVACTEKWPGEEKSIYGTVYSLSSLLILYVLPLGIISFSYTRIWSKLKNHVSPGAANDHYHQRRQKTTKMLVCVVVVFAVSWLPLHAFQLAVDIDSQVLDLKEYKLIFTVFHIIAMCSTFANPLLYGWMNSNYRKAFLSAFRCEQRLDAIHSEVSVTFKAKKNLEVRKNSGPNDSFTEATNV
Chain of Neuropeptide Y receptor type 1 (P25929 whole entry, the tested form may be a part): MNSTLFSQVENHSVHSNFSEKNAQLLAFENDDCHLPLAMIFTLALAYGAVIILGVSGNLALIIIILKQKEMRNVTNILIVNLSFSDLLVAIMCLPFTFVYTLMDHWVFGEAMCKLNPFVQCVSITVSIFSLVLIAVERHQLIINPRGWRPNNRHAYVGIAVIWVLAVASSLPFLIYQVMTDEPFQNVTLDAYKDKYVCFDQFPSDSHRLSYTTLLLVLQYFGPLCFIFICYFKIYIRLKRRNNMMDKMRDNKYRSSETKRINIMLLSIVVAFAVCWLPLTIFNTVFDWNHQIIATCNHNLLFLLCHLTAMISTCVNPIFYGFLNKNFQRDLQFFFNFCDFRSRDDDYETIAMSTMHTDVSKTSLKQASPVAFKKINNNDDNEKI
Chain of Serine/threonine-protein phosphatase (Q9BPW0 whole entry): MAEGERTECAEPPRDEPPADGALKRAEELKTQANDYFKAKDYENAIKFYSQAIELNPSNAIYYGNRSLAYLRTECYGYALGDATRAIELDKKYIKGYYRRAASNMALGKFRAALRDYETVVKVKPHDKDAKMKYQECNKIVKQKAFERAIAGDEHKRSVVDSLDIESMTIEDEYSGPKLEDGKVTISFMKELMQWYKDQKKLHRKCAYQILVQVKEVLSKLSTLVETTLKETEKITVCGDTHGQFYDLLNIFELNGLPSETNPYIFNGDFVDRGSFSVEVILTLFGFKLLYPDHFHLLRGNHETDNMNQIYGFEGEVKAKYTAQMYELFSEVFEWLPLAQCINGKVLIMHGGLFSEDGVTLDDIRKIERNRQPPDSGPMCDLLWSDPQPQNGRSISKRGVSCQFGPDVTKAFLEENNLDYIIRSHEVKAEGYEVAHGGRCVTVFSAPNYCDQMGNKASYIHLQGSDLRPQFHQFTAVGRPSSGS
Chain of Serine/threonine-protein phosphatase PP1-alpha catalytic subunit (P62136 whole entry): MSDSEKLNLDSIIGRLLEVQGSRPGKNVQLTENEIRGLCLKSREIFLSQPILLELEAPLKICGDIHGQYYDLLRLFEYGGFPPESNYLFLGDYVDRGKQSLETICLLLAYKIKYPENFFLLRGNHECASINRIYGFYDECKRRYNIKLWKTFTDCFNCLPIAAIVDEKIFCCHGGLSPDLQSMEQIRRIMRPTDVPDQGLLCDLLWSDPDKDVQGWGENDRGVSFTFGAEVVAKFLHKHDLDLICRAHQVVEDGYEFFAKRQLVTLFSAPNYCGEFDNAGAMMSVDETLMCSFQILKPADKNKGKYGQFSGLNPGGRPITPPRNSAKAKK
Chain of Nonstructural protein 1 (Q194T2 whole entry): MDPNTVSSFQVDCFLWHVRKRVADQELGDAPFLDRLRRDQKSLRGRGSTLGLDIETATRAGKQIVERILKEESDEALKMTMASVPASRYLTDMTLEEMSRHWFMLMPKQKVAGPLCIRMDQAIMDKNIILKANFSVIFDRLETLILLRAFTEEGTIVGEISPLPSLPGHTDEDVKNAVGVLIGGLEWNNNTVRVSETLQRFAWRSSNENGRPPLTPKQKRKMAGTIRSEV

## CCOC(=O)c1cnc(-n2cc(C)cn2)nc1NCc1ccc2c(c1)OCO2
[1]
  IC50: > 67 µM (not active)
[2]
  IC50: 5.96 µM (active)

## COc1ccccc1NS(=O)(=O)c1cccc(N2C(=O)/C(=C\Nc3ccccc3C(=O)O)c3ccccc3C2=O)c1
[3]
  IC50: 22.2 µM (active)
[4]
  EC50: > 11.8 µM (not active)
[5]
  IC50: 19.6 µM (active)
Aminopeptidase N
  IC50: 30.4 µM (active)
[6]
  IC50: 2.81 µM (active)
Vero
  CC50: > 40 µM (active)
[7]
  EC50: 20.1 µM (not active)
HEK293
  EC50: 13.4 µM (not active)

## S=C(NCc1ccc2c(c1)OCO2)Nc1ccc(-c2nc3ccccc3[nH]2)cc1
[8]
  EC50: > 100 µM (active)

## Oc1c(CN2CCOCC2)cc(COCc2ccccc2)c2cccnc12
[9]
  EC50: 28 µM (active)
[10]
  IC50: 25.7 µM (active)
[11]
  EC50: > 160 µM (inactive)
[12]
  EC50: 5.43 µM (active)
[13]
  EC50: 1.26 µM (active)
INS1
  AC50: 2.39 µM (active)
Nonstructural protein 1
  IC50: 4.95 µM (active)
Cells [14]
  EC50: > 350 µM (not active)
[15]
  AC50: 1.28 µM (active)
Cells [16]
  EC50: 6.33 µM (active)
[17]
  EC50: 4.24 µM (active)
[18]
  EC50: 36.3 µM (active)
[19]
  EC50: 4.97 µM (active)
[20]
  AC50: 3.15 µM (active)
[21]
  EC50: 1.28 µM (active)
[22]
  AC50: 2.13 µM (active)

## CCC(=O)Oc1ccc(C(CC)C(CC)c2ccc(OC(=O)CC)cc2)cc1 (stereo not given)
Estrogen receptor
  EC50: 10.2 µM (active)
[23]
  EC50: 10.7 µM (active)
[24]
  EC50: 9.19 µM (active)
